Results reported in patent US20140315876A1, “BETA-LACTAMASE INHIBITORS” (priority 2013, published 2014).
Where a name gives a salt, the structure may show the parent alone.

Assays:
[1] = test system: bacterial strains that express the class D cephalosporinase OXA-15; assay: Synergy MIC / standard BLI potentiation MIC assay, strains expressing OXA-15; assay type: cell-based, E. coli; settings: in the presence of a β-lactam; comparator Avibactam (comparator compound CCC)
Procedure, shortened: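 Broth microdilution in CAMHB per CLSI, ~10^5 CFU/mL, 18-20 h at 37° C; MIC is lowest concentration with no visible turbidity. Potentiation: β-lactam 128-0.13 μg/mL with BLI fixed at 4 μg/mL. Synergy: BLI serially diluted with β-lactam fixed. Engineered E. coli kept on 25 μg/mL tetracycline.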

[2] = test system: bacterial strains that express KPC β-lactamases; assay: Synergy MIC / standard BLI potentiation MIC assay, strains expressing KPC β-lactamases; assay type: cell-based; settings: more active for at least one KPC strain and/or better spectrum of activity than Avibactam; in the presence of a β-lactam
Experimental: The experimental protocol was performed according to Clinical and Laboratory Standards Institute (CLSI) guidelines with modifications as described below (CLSI guidelines can be derived from the CLSI document M07-A9 published in January 2012: “Methods for Dilution Antimicrobial Susceptibility Tests for Bacteria That Grow Aerobically; Approved Standard-Ninth Edition”).
To prepare for MIC testing, frozen glycerol stocks of clinical isolates (Klebsiella pneumoniae, Eschericia coli, Enterobacter spp, Citrobacter spp, or Pseudomonas aeruginosa) were used to streak for isolated colonies on rich, non-selective, tryptic soy agar containing 5% sheep's blood (TSAB). Frozen glycerol stocks of laboratory engineered, isogenic E. coli strains, which contain cloned β-lactamase expressing plasmids were used to streak for isolated colonies on rich, selective LB agar supplemented with 25 μg/mL tetracycline to maintain the plasmid. All strains were incubated at 37° C. for 18-24 hrs.
On the day of testing, primary cultures were started by scraping off 5-10 colonies from the TSAB plates containing clinical strains or the tetracycline supplemented LB plates containing engineered strains. The clinical strain material was suspended in ˜5 mL of cation adjusted Mueller Hinton Broth (CAMHB) in 14 mL culture tubes. The engineered strain material was suspended in CAMHB (supplemented with 25 μg/mL tetracycline) in 14 mL culture tubes. All strains were incubated at 37° C. with aeration (200 rpm) for ˜2 hrs until the optical density at 600 nm (OD600) was ≧0.1.
The two compound components of the assay were each diluted in CAMHB and added to the 96-well broth microdilution assay plates. 50 μL of the β-lactam was added to each well of the assay plate in 2-fold dilutions with final concentrations ranging from 128 to 0.13 μg/mL. 25 μL of the BLI compound was added to all wells in the broth microdilution plates at a final concentration of 4 μg/mL. Inoculum cultures were prepared by standardizing the primary cultures to OD600=0.1 and then adding 20 μL of the adjusted primary culture per 1 mL CAMHB for clinical strains or CAMHB (supplemented with tetracycline at 100 μg/mL) for engineered strains, so that the final inoculum density was ˜10^5 colony forming units per milliliter. Diluted inoculum cultures were used to inoculate 25 μL per well in 96-well broth microdilution assay plates. The final volume of each well was 100 μL and contained a β-lactam at different concentrations, a BLI compound at 4 μg/mL concentration, the bacterial culture at an OD600 of approximately 0.001 and when necessary tetracycline at 25 μg/mL.
Plates were incubated for 18-20 hours at 37° C. with aeration (200 rpm). Following incubation, growth was confirmed visually placing plates over a viewing apparatus (stand with a mirror underneath) and then OD600 was measured using a SpectraMax 340PC384 plate reader (Molecular Devices, Sunnyvale, Calif.). Growth was defined as turbidity that could be detected with the naked eye or achieving minimum OD600 of 0.1. MIC values were defined as the lowest concentration producing no visible turbidity.
The synergy MIC (sMIC) assay determines the concentration of the BLI required to potentiate the activity of a fixed concentration of a β-lactam antibiotic against β-lactamase producing bacterial strains. The experimental protocol was performed according to Clinical and Laboratory Standards Institute (CLSI) guidelines with modifications as described below (CLSI guidelines can be derived from the CLSI document M07-A9 published in January 2012: “Methods for Dilution Antimicrobial Susceptibility Tests for Bacteria That Grow Aerobically; Approved Standard-Ninth Edition”). […]

| SMILES | activity against bacterial strains that express the class D cephalosporinase OXA-15, compared with Avibactam [1] | activity and/or spectrum of activity against bacterial strains that express KPC β-lactamases, compared with Avibactam [2] |
| --- | --- | --- |
| NC1(Cc2nnc([C@@H]3CC[C@@H]4CN3C(=O)N4OS(=O)(=O)O)o2)CC1 [Compound 724, (2S,5R)-2-(5-((1-aminocyclopropyl)methyl)-1,3,4-oxadiazol-2-yl)-7-oxo-1,6-diazabicyclo[3.2.1]octan-6-yl hydrogen sulfate] | more active than Avibactam | more active than Avibactam |
| N=C(N)NC1(Cc2nnc([C@@H]3CC[C@@H]4CN3C(=O)N4OS(=O)(=O)O)o2)CC1 [Compound 739, (2S,5R)-2-(5-((1-guanidinocyclopropyl)methyl)-1,3,4-oxadiazol-2-yl)-7-oxo-1,6-diazabicyclo[3.2.1]octan-6-yl hydrogen sulfate] | more active than Avibactam | more active than Avibactam |
| O=C1N2C[C@@H](CC[C@H]2c2nnc(CCCNC3CCNCC3)o2)N1OS(=O)(=O)O [Compound 771, (2S,5R)-7-oxo-2-(5-(3-(piperidin-4-ylamino)propyl)-1,3,4-oxadiazol-2-yl)-1,6-diazabicyclo[3.2.1]octan-6-yl hydrogen sulfate] | more active than Avibactam | more active than Avibactam |
| NCc1nnc([C@@H]2CC[C@@H]3CN2C(=O)N3OS(=O)(=O)O)o1 [Compound 702, (2S,5R)-2-(5-(aminomethyl)-1,3,4-oxadiazol-2-yl)-7-oxo-1,6-diazabicyclo[3.2.1]octan-6-yl hydrogen sulfate] | more active than Avibactam | more active than Avibactam |
| N[C@@H]1CN[C@H](c2nnc([C@@H]3CC[C@@H]4CN3C(=O)N4OS(=O)(=O)O)o2)C1 [Compound 760, (2S,5R)-2-(5-((2S,4S)-4-aminopyrrolidin-2-yl)-1,3,4-oxadiazol-2-yl)-7-oxo-1,6-diazabicyclo[3.2.1]octan-6-yl hydrogen sulfate] | more active than Avibactam | more active than Avibactam |
| N=C(N)N[C@H]1C[C@@H](c2nnc([C@@H]3CC[C@@H]4CN3C(=O)N4OS(=O)(=O)O)o2)C1 [Compound 749, (2S,5R)-2-(5-((1s,3R)-3-guanidinocyclobutyl)-1,3,4-oxadiazol-2-yl)-7-oxo-1,6-diazabicyclo[3.2.1]octan-6-yl hydrogen sulfate] | more active than Avibactam | more active than Avibactam |
| O=C1N2C[C@@H](CC[C@H]2c2nnc(CCCCNC3CCNCC3)o2)N1OS(=O)(=O)O [Compound 772, (2S,5R)-7-oxo-2-(5-(4-(piperidin-4-ylamino)butyl)-1,3,4-oxadiazol-2-yl)-1,6-diazabicyclo[3.2.1]octan-6-yl hydrogen sulfate] | more active than Avibactam | more active than Avibactam |
| NC(=O)c1nnc([C@@H]2CC[C@@H]3CN2C(=O)N3OS(=O)(=O)O)o1 [Compound 706, (2S,5R)-2-(5-carbamoyl-1,3,4-oxadiazol-2-yl)-7-oxo-1,6-diaza-bicyclo[3.2.1]octan-6-yl hydrogen sulfate] | more active than Avibactam | more active than Avibactam |
| O=C1N2C[C@@H](CC[C@H]2c2nnc(CC3CCNC3)o2)N1OS(=O)(=O)O (stereo partly drawn) [Compound 764, (2S,5R)-7-oxo-2-(5-(pyrrolidin-3-ylmethyl)-1,3,4-oxadiazol-2-yl)-1,6-diazabicyclo[3.2.1]octan-6-yl hydrogen sulfate] | more active than Avibactam | more active than Avibactam |
| O=C1N2C[C@@H](CC[C@H]2c2nnc(C3CC4(CNC4)C3)o2)N1OS(=O)(=O)O [Compound 750, (2S,5R)-2-(5-(2-azaspiro[3,3]heptan-6-yl)-1,3,4-oxadiazol-2-yl)-7-oxo-1,6-diazabicyclo[3.2.1]octan-6-yl hydrogen sulfate] | more active than Avibactam | more active than Avibactam |
| NC1CC(NCc2nnc([C@@H]3CC[C@@H]4CN3C(=O)N4OS(=O)(=O)O)o2)C1 (stereo partly drawn) [Compound 755, (2S,5R)-2-(5-(((3-aminocyclobutyl)amino)methyl)-1,3,4-oxadiazol-2-yl)-7-oxo-1,6-diazabicyclo[3.2.1]octan-6-yl hydrogen sulfate] | more active than Avibactam | more active than Avibactam |
| O=C1N2C[C@@H](CC[C@H]2c2nnc(C3CCNCC3)o2)N1OS(=O)(=O)O [Compound 711, (2S,5R)-7-oxo-2-(5-(piperidin-4-yl)-1,3,4-oxadiazol-2-yl)-1,6-diazabicyclo[3.2.1]octan-6-yl hydrogen sulfate] | more active than Avibactam | more active than Avibactam |
| N=C(N)NCc1nnc([C@@H]2CC[C@@H]3CN2C(=O)N3OS(=O)(=O)O)s1 [Compound 721, (2S,5R)-2-(5-(guanidinomethyl)-1,3,4-thiadiazol-2-yl)-7-oxo-1,6-diazabicyclo[3.2.1]octan-6-yl hydrogen sulfate] | more active than Avibactam | more active than Avibactam |
| N=C(N)NCCc1nnc([C@@H]2CC[C@@H]3CN2C(=O)N3OS(=O)(=O)O)s1 [Compound 794, (2S,5R)-2-(5-(2-guanidinoethyl)-1,3,4-thiadiazol-2-yl)-7-oxo-1,6-diazabicyclo[3.2.1]octan-6-yl hydrogen sulfate] | more active than Avibactam | more active than Avibactam |
| N=C1NCC(c2nnc([C@@H]3CC[C@@H]4CN3C(=O)N4OS(=O)(=O)O)o2)N1 (stereo partly drawn) [Compound 767, (2S,5R)-2-(5-(2-iminoimidazolidin-4-yl)-1,3,4-oxadiazol-2-yl)-7-oxo-1,6-diazabicyclo[3.2.1]octan-6-yl hydrogen sulfate] | more active than Avibactam | more active than Avibactam |
